{
  "source": "patent US20250049737A1",
  "about": "“Lauflumide and derivatives thereof for treating chronic fatigue syndrome and myalgic encephalomyelitis/chronic fatigue syndrome (ME/CFS)” (NLS Pharmaceutics AG, priority 2021, published 2025)",
  "key": {"[1]": {"biological_target": "T1, DAT (h) (antagonist radioligand) (Homo sapiens, UniProt Q01959)", "T1 construct": "Eurofins CEREP (contract study 100014859)", "T1 sequence (Q01959 whole entry)": "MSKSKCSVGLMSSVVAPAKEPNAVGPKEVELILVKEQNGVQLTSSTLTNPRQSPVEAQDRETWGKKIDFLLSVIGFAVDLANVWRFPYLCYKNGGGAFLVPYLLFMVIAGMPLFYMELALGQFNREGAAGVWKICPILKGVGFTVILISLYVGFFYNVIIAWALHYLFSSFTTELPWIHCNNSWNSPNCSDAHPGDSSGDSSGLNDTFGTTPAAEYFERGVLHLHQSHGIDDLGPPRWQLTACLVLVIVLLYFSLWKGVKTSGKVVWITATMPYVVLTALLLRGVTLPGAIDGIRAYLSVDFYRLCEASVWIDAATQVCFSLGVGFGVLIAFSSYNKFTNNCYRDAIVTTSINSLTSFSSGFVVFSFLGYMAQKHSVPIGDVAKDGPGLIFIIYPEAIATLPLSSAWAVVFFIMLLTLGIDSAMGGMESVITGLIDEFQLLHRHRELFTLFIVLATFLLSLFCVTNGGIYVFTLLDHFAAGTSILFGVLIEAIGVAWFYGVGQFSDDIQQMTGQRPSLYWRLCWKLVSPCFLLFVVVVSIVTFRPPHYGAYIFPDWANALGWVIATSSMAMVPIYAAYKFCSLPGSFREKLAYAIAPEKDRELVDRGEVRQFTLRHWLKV", "assay": "Radioligand binding panel (Eurofins CEREP), DAT", "conditions": "% inhibition of control specific binding", "description": "(§1) Lauflumide is tested at 10^-5 M, calculated as a % inhibition of control specific binding of a radioactively labeled ligand specific for each target.\n(§2) This binding profile panel was broadly defined with roughly an equal number of selective, central and peripheral therapeutically relevant targets, including native animal tissues, radioligands and specific enzymes involved in cell cycle regulation in accordance with Eurofins Standard Operating Procedure (www.eurofins.fr).\n(§3) For radioligand binding experiments, the half maximal inhibitory concentration (IC50) and the half maximal effective concentration (EC50) values were determined (via computer software) by nonlinear regression analysis of the competition curves using Hill equation curve fitting. The inhibition constants (Ki) were calculated using the Cheng-Prusoff equation (Ki=IC50/(1+(L/KD)), where L is the concentration of radioligand in the assay, and KD is the affinity of the radioligand for the receptor.\n(§4) The results are expressed as a % control specific binding ([measured specific binding/control specific binding]×100) and as a % inhibition of control specific binding (100−[(measured specific binding/control specific binding)×100]) obtained in the presence of the test compounds. […]"}, "[2]": {"biological_target": "T2, Histamine 2 (h) (H2) (agonist radioligand) (Homo sapiens, UniProt P25021)", "T2 construct": "Eurofins CEREP (contract study 100014859)", "T2 sequence (P25021 whole entry)": "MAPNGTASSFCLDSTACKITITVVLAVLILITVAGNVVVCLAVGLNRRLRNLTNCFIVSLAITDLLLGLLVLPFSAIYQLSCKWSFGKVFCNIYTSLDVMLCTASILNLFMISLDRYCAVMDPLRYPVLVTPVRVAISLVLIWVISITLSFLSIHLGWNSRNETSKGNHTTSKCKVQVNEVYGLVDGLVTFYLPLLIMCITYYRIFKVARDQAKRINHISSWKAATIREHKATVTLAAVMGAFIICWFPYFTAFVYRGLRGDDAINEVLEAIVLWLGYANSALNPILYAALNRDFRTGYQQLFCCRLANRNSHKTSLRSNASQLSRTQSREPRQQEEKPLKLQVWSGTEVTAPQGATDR", "assay": "Radioligand binding panel (Eurofins CEREP), histamine H2", "conditions": "% inhibition of control specific binding", "description": "as §1, §2, §3, §4"}, "[3]": {"biological_target": "T3, NPY1 (h) (reverse agonist radioligand) (Homo sapiens, UniProt P25929)", "T3 construct": "Eurofins CEREP (contract study 100014859)", "T3 sequence (P25929 1-384)": "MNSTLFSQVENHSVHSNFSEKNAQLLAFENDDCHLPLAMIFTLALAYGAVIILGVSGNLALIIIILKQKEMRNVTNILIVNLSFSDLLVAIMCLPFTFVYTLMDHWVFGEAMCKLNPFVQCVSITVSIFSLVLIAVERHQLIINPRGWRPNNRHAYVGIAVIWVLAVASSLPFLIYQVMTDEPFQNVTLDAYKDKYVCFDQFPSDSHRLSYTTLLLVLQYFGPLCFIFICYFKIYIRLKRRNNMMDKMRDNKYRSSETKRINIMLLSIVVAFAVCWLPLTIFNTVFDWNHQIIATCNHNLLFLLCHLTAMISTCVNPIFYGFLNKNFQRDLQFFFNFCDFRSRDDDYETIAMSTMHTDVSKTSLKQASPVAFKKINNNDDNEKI", "assay": "Radioligand binding panel (Eurofins CEREP), NPY1", "conditions": "% inhibition of control specific binding", "description": "as §1, §2, §3, §4"}, "[4]": {"assay": "Body weight during fatigue procedure and test period", "assay_type": "in vivo, Rats, Sprague-Dawley", "conditions": "test period", "description": "FIG. 26 Body weight (in g; mean, SEM) before the beginning and during the fatigue procedure (F-D1-7) and during the test period (T-D1-D3+24 h).\nAnimals were weighed every day.\nAfter the end of the Fatigue procedure, animals were divided into 10 groups which received before tests (total: 3 administrations) a per-os (p.o., oral gavage) administration of: • Sham (no fatigue) group (N=12): Vehicle. • Control group (N=11): Vehicle. • Modafinil 32 (N=10): modafinil (32 mg/kg). • Modafinil 64 (N=10): modafinil (64 mg/kg). • Modafinil 128 (N=5): modafinil (128 mg/kg). • NLS-4 16 (N=5): NLS-4 (16 mg/kg). • NLS-4 32 (N=10): NLS-4 (32 mg/kg). • NLS-4 64 (N=10): NLS-4 (64 mg/kg). • NLS-4 128 (N=10): NLS-4 (128 mg/kg). • NLS-4 256 (N=5): NLS-4 (256 mg/kg)."}, "impulsivity": {"system": "impulsivity", "assay": "Impulsivity", "assay_type": "in vivo", "conditions": "three doses tested; compared with modafinil"}},
  "data": [
    {"compound": "NC(=O)C[S@@+]([O-])C(c1ccc(F)cc1)c1ccc(F)cc1", "note": "[Lauflumide, 2-[(R)-((bis(4-fluorophenyl)methane)sulfinyl)]acetamide]", "values": [
      {"measurement": "% Inhibition at 10^−5M", "setting": "[1]", "value": 84.4, "unit": "%"},
      {"measurement": "% Inhibition at 10^−5M", "setting": "[2]", "value": 46.6, "unit": "%"},
      {"measurement": "% Inhibition at 10^−5M", "setting": "[3]", "value": 27.3, "unit": "%"},
      {"measurement": "Weight loss induced by the fatigue procedure", "setting": "[4]; 16 mg/kg p.o.", "value": "not modified"},
      {"measurement": "Weight loss induced by the fatigue procedure", "setting": "[4]; 32-256 mg/kg p.o.", "value": "aggravated"},
      {"measurement": "Impulsivity", "setting": "impulsivity", "value": "improved impulsivity at the three doses tested with a better significant response than modafinil"}
    ]}
  ]
}
